Laboratory results as given in ChEMBL document CHEMBL2163330, “Dynamic modeling of human 5-lipoxygenase-inhibitor interactions helps to discover novel inhibitors” (J Med Chem, 2012).

Assays:
[1] = molecular target: T1, Polyunsaturated fatty acid 5-lipoxygenase (Homo sapiens, UniProt P09917); assay: Inhibition of human 5-LOX in A23187-induced human whole blood assessed as reduction in LTB4 production pre-incubated for 20 mins before A23187 addition by enzyme immunoassay
T1 sequence (P09917 whole entry): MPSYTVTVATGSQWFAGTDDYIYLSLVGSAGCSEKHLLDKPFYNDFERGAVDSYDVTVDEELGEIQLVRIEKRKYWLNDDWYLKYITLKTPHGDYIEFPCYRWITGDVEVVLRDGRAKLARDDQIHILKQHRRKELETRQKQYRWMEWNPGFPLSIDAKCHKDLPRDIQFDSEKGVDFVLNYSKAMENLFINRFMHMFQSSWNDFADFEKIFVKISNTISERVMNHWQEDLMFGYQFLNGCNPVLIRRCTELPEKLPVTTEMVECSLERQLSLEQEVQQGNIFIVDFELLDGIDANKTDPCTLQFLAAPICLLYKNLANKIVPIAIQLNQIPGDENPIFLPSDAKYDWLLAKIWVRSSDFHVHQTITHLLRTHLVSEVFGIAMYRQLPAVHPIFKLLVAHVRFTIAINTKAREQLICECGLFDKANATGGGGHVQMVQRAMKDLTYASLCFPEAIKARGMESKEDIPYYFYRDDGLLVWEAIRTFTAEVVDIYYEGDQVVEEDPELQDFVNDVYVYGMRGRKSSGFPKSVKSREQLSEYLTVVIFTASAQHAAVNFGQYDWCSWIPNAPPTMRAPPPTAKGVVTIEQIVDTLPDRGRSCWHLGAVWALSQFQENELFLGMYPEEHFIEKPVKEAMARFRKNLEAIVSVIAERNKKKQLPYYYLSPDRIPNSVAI

[2] = molecular target: T2, Leukotriene A-4 hydrolase (Homo sapiens) (UniProt P09960); assay: Inhibition of epoxide hydrolase activity of human recombinant leukotriene A4 hydrolase expressed in Escherichia coli assessed as LTB4 production at 100 uM by RP-HPLC
T2 sequence (whole entry): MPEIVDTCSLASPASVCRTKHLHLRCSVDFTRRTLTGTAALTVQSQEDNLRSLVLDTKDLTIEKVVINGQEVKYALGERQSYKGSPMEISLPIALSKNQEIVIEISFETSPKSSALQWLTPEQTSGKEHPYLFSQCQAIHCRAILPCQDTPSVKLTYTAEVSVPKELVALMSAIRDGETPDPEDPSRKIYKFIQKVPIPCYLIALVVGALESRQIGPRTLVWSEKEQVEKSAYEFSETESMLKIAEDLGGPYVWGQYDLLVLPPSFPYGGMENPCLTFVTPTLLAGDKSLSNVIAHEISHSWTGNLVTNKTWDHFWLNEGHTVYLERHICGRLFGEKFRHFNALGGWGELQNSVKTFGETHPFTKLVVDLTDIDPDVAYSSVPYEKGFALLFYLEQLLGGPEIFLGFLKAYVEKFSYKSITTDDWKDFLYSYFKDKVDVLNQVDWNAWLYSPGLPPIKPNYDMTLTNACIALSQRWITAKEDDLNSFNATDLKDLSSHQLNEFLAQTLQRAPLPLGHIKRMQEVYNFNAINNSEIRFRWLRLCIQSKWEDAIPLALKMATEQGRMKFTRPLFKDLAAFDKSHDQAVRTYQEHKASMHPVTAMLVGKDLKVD

[3] = molecular target: T1, Polyunsaturated fatty acid 5-lipoxygenase; assay: Inhibition of human recombinant 5-LOX expressed in Escherichia coli […] incubated 10 mins before substrate addition by fluorescence spectrophotometry based cell free system assay
[4] = molecular target: T3, Prostaglandin G/H synthase 2 (Homo sapiens) (UniProt P35354); assay: Inhibition of purified COX2 assessed as formation of oxidized TMPD during reduction of PGG2 to PGH2 preincubated for 15 mins by chromogenic assay
T3 sequence (whole entry): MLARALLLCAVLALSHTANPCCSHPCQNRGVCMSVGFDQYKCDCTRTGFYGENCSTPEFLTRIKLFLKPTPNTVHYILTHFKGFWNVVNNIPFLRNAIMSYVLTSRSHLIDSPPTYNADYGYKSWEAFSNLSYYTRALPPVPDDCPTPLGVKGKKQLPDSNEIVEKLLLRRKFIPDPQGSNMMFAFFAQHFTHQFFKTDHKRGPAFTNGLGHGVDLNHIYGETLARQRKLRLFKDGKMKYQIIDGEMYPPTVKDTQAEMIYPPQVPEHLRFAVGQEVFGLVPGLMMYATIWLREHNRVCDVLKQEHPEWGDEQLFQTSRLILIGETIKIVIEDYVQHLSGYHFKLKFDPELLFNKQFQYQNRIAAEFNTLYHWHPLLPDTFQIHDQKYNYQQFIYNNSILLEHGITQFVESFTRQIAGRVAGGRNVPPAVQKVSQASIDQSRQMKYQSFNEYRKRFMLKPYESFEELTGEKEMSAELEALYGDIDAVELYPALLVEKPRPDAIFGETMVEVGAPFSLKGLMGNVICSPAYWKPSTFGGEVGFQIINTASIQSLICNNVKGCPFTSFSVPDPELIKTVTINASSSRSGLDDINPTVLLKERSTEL

Prostaglandin E synthase [5] = molecular target: T4, Prostaglandin E synthase (Homo sapiens, UniProt O14684); assay: Inhibition of mPGES1 in LPS-stimulated human whole blood assessed as reduction in PGE2 production incubated for 24 hrs at 37 degC by enzyme immunoassay
T4 sequence (O14684 whole entry): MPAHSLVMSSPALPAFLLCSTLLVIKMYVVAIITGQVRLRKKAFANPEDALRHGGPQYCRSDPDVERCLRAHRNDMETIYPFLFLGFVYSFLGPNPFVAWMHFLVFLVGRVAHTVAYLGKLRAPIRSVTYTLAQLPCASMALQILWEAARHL

Prostaglandin E synthase [6] = molecular target: T4, Prostaglandin E synthase; assay: Inhibition of mPGES1 expressed in Escherichia coli Rosetta-DE3 assessed as reduction in PGE2 production by enzyme immunoassay based cell-free system assay
[7] = molecular target: Prostaglandin G/H synthase 1 (Homo sapiens) (UniProt P23219); assay: Inhibition of purified COX1 assessed as formation of oxidized TMPD during reduction of PGG2 to PGH2 preincubated for 15 mins by chromogenic assay
Sequence of Prostaglandin G/H synthase 1 (Homo sapiens) (P23219 whole entry): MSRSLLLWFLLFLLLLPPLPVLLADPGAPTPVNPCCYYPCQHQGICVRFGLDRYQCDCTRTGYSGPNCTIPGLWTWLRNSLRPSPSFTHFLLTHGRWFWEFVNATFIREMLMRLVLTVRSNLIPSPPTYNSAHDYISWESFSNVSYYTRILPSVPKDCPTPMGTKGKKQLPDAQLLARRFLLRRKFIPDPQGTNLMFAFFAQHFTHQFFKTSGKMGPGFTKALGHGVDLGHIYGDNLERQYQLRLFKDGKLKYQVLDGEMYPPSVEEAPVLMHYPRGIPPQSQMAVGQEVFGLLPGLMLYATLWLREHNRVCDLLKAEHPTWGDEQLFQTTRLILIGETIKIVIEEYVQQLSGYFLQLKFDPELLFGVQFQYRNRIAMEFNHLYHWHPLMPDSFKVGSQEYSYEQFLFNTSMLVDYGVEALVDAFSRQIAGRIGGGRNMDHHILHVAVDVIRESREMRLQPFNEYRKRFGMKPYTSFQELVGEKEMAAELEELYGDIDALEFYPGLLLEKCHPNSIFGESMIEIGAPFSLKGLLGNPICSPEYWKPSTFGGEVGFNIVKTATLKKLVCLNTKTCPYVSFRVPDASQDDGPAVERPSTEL

[8] = molecular target: T5, Polyunsaturated fatty acid 5-lipoxygenase (Rattus norvegicus, UniProt P12527); assay: Inhibition of 5-LOX in rat RBL1 cells assessed as reduction in LTB4 production; type: cell-based, RBL-1
T5 sequence (P12527 whole entry): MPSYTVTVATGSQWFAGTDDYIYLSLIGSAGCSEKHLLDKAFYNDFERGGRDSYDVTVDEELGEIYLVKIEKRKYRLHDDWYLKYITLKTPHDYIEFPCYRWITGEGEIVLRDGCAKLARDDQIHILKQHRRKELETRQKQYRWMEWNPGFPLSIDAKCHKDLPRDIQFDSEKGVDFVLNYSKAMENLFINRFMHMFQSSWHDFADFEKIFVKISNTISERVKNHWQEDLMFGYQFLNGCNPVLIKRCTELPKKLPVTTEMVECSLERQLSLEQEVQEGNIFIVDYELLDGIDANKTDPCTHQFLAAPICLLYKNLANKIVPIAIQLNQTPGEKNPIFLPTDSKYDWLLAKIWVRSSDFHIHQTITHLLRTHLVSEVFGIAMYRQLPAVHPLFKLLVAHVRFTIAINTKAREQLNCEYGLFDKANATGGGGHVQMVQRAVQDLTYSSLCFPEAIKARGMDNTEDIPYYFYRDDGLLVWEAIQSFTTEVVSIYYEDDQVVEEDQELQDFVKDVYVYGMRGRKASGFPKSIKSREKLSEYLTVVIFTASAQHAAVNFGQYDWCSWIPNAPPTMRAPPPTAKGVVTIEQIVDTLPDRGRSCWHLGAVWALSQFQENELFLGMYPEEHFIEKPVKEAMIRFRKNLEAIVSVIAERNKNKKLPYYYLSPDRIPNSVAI

| Structure (SMILES) | IC50 [1] | inhibition [2] | IC50 [3] | inhibition [4] | IC50 (Prostaglandin E synthase [5]) | IC50 (Prostaglandin E synthase [6]) | inhibition [7] | IC50 [8] |
| --- | --- | --- | --- | --- | --- | --- | --- | --- |
| N#C/C(=C(/O)c1ccc(Cl)c([N+](=O)[O-])c1)c1nc2ccccc2s1 | > 100 µM | < 50% | 53 µM |  |  |  |  |  |
| O=C(NC1c2ccccc2Oc2ccccc21)c1ccc(Cl)c([N+](=O)[O-])c1 | > 100 µM | < 50% | 67 µM |  |  |  |  |  |
| O=C1OC(c2ccc3ccccc3c2)=N/C1=C\c1ccc(Cl)cc1 | > 100 µM | < 50% | 80 µM |  |  |  |  |  |
| c1ccc(SCc2nnc3sc(-c4ccc5c(c4)OCCO5)nn23)cc1 | > 100 µM | < 50% | 70 µM |  |  |  |  |  |
| CCOc1ccc(S(=O)(=O)N(CC(=O)N2CCc3ccccc3C2)c2ccccc2)cc1 | > 100 µM | < 50% | 29 µM |  |  |  |  |  |
| Cc1ccc(Sc2nc([N+](=O)[O-])nn2CC(=O)c2ccccc2)cc1 | 76 µM | < 50% | 1.4 µM |  |  |  |  |  |
| O=C(Oc1cccc2ccccc12)c1cc([N+](=O)[O-])cc([N+](=O)[O-])c1 | 8.6 µM | < 50% | 1.04 µM | < 50% | 7.6 µM | 3.6 µM | < 50% |  |
| CC1(C)Cc2c(-c3ccccc3)c(-c3ccc(Cl)cc3)c(CC(=O)O)n2C1 [LICOFELONE] |  |  |  |  | 3.9 µM |  |  | 3.6 µM |
| O=[N+]([O-])c1ccc(CSc2cc3ccccc3[nH]2)c([N+](=O)[O-])c1 | 23.9 µM | < 50% | 0.8 µM |  |  |  |  |  |
| O=C(O/N=C/c1ccc(Br)cc1)c1cc([N+](=O)[O-])cc([N+](=O)[O-])c1 | 36 µM | < 50% | 0.62 µM |  |  |  |  |  |
| O=[N+]([O-])c1ccc(Cl)c(S(=O)(=O)n2cnc3ccccc32)c1 | 8.1 µM | < 50% | 6.9 µM |  |  |  |  |  |
| CC(C)(C)OC(=O)NNS(=O)(=O)c1cccc([N+](=O)[O-])c1 | > 100 µM | < 50% | 81 µM |  |  |  |  |  |
| O=C(COC(=O)c1ccc(C(=O)c2ccc([N+](=O)[O-])cc2)cc1)c1ccccc1 | 48 µM | < 50% | 1.49 µM |  |  |  |  |  |
| Clc1ccc(-c2nn3c(Cc4ccccc4)nnc3s2)cc1Cl | > 100 µM | < 50% | 37.5 µM |  |  |  |  |  |
| Cc1cccc(N=C2NS(=O)(=O)c3cc([N+](=O)[O-])ccc32)c1 | 9.7 µM |  | 1.87 µM |  | 15.6 µM | 6.7 µM |  |  |
| c1ccc2c(c1)OCC(c1nn3c(Cn4nnc5ccccc54)nnc3s1)O2 (stereo not given) | > 100 µM | < 50% | 97 µM |  |  |  |  |  |
| Cc1cccc(NC2=NS(=O)(=O)c3cc([N+](=O)[O-])ccc32)c1 |  | < 50% |  | < 50% |  |  | < 50% |  |
| COC(=O)c1ccc(NC(=S)NC(=O)c2cc(-c3ccccc3)nc3ccccc23)cc1 | > 100 µM | < 50% | 45 µM |  |  |  |  |  |
| O=C(NCCNC(=O)c1ccc([N+](=O)[O-])o1)c1ccc2ccccc2n1 | > 100 µM | < 50% | 82 µM |  |  |  |  |  |

Now from value to compound:

| IC50 [1] | inhibition [2] | IC50 [3] | inhibition [4] | IC50 (Prostaglandin E synthase [5]) | IC50 (Prostaglandin E synthase [6]) | inhibition [7] | IC50 [8] | Structure (SMILES) |
| --- | --- | --- | --- | --- | --- | --- | --- | --- |
| > 100 µM | < 50% | 4.6 µM |  |  |  |  |  | Cc1ccc2cccc(OC(=O)c3cccc([N+](=O)[O-])c3)c2n1 |
| 38 µM | < 50% | 5.3 µM |  |  |  |  |  | O=C1c2ccc([N+](=O)[O-])cc2C(=O)N1CNc1ccc([N+](=O)[O-])cc1 |
| > 100 µM | < 50% | 70 µM |  |  |  |  |  | C/C(NCc1ccc(Cl)c(Cl)c1)=C1\C(=O)N(c2nc3ccccc3s2)N=C1C(F)(F)F |
| > 100 µM | < 50% | 65 µM |  |  |  |  |  | Cc1nn(Cc2ccc(F)cc2)c(C)c1NC(=O)C1CC(c2cccc(Br)c2)=NO1 (stereo not given) |
| > 100 µM | < 50% | 17 µM |  |  |  |  |  | COc1ccc(-c2nnc3sc(/C=C/c4ccccc4OC)nn23)cc1 |
| > 100 µM | < 50% | 44 µM |  |  |  |  |  | Cc1cc(Cl)ccc1NC(=O)Cn1nnc2sc3c(c2c1=O)CCCC3 |
| > 100 µM | < 50% | 20 µM |  |  |  |  |  | COc1ccc(/C=C2\N=C(c3ccc(Cl)c([N+](=O)[O-])c3)OC2=O)c(OC)c1OC |
| > 100 µM | < 50% | 33.8 µM |  |  |  |  |  | O=c1/c(=C/c2cc(I)c(O)c([N+](=O)[O-])c2)sc2nc3ccccc3n12 |
| > 100 µM | < 50% | 14.2 µM |  |  |  |  |  | Cc1cccc(C2=N/C(=C\c3ccc(-c4cccc(Cl)c4)o3)C(=O)O2)c1 |
| > 100 µM | < 50% | 15 µM |  |  |  |  |  | O=C(CSc1nnnn1-c1ccc(Cl)c(C(=O)O)c1)Nc1ccc(F)cc1 |
| > 100 µM | < 50% | 68 µM |  |  |  |  |  | COc1cc(Cl)cc(/C=C2/SC(=O)N(Cc3ccc(F)cc3)C2=O)c1O |
| > 100 µM | < 50% | 5.4 µM |  |  |  |  |  | Cn1ncc(Cl)c1C(=O)N/N=C/c1ccccc1OC(=O)c1ccc([N+](=O)[O-])cc1 |
| 40 µM | < 50% | 0.86 µM |  |  |  |  |  | CCOc1cc(/C=N\Nc2nc3ccccc3s2)cc([N+](=O)[O-])c1O |
